Legend:
Experiment in all cases: Inhibition of cell proliferation (MTT)
Format in all cases: cell-based
D1-1 = conditions: Homo sapiens; D1-1, Leukemia; 48 hours
Description: (§1) Inhibition of cell proliferation is determined in human tumor cell lines. Innoculation density and doubling times for specific cell lines are listed at World Wide Web URL “dtp.nci.nih.gov/docs/misc/common_files/cell_list.html.”
(§2) • 1. Plate adherent cells the day before starting the experiment in 180 μl growth media (see list hereafter). • 2. Day of experiment, count and plate suspension cells in 180 μl growth media (see list on next page). • 3. Make 10× Compound, vehicle, and chemotherapeutic cocktail • a. Compound (1× to 10×) • i. 10 μM Compound to 100 μM • ii. 3 μM Compound to 30 μM • iii. 1 μM Compound to 10 μM • iv. 0.3 μM Compound to 3 μM • v. 0.1 μM Compound to 1 μM • b. Vehicle • i. PBS, equivalent to the volume used for 10 μM Compound (1× is ˜0.06% PBS) • c. Chemotherapeutic cocktail (1× to 10×): • i. 1 μM Velcade to 10 μM • ii. 100 μM Etoposide to 1 mM • iii. 20 μM Taxol to 200 μM • 4. Add 20 μl of the 10× compound/vehicle/chemotherapeutic cocktail to cells. • 5. Incubate at 37° C., 5% CO2 for 48 hours. • 6. Aspirate media. For suspension cells, spin plate at 1500 RPM for 10 minutes. Use a multichannel pipettor to slowly remove media. • 7. Add 200 μl of Thiazolyl Blue Tetrazolium Bromide (MTT) to each well: 0.863 mg/ml MTT in growth media.
(§3) Proliferation of several cancer cells was inhibited by compound TA1-1B (which is a particular mixture of the isomers represented by TA1-1A), as shown in the following table (Table 1). The value EC50 is the amount of Compound TA1-1B that results in 50% inhibition of proliferation of the indicated cell type.

GDM-1 = conditions: Homo sapiens; GDM-1, Leukemia; 48 hours
Description: as §1, §2, §3

SF-268 = conditions: Homo sapiens; SF-268, CNS; 48 hours
Description: as §1, §2, §3

Ramos = conditions: Homo sapiens, Lymphoma, 48 hours
Description: as §1, §2, §3

MC116 = conditions: Homo sapiens; MC116, Lymphoma; 48 hours
Description: as §1, §2, §3

HCT-15 = conditions: Homo sapiens; HCT-15, Colon; 48 hours
Description: as §1, §2, §3

SNB-75 = conditions: Homo sapiens; SNB-75, CNS; 48 hours
Description: as §1, §2, §3

T-47D = conditions: Homo sapiens, T47D, Breast, 48 hours
Description: as §1, §2, §3

Kasumi-1 = conditions: Homo sapiens; Kasumi-1, Leukemia; 48 hours
Description: as §1, §2, §3

RS1184 = conditions: Homo sapiens; RS1184, Lymphoma; 48 hours
Description: as §1, §2, §3

UO-31 = conditions: Homo sapiens; UO-31, Renal; 48 hours
Description: as §1, §2, §3

MEG-01 = conditions: Homo sapiens; MEG-01, Leukemia; 48 hours
Description: as §1, §2, §3

MOLT-3 = conditions: Homo sapiens; MOLT-3, Leukemia; 48 hours
Description: as §1, §2, §3

H9 = conditions: Homo sapiens; H9, Lymphoma; 48 hours
Description: as §1, §2, §3

PC-3 = conditions: Homo sapiens; PC-3, Prostate; 48 hours
Description: as §1, §2, §3

OVCAR-3 = conditions: Homo sapiens; OVCAR-3, Ovarian; 48 hours
Description: as §1, §2, §3

MALME-3M = conditions: Homo sapiens, Melanoma, 48 hours
Description: as §1, §2, §3

TF-1 = conditions: Homo sapiens; TF-1, Leukemia; 48 hours
Description: as §1, §2, §3

THP-1 = conditions: Homo sapiens; THP-1, Leukemia; 48 hours
Description: as §1, §2, §3

JM1 = conditions: Homo sapiens; JM1, Lymphoma; 48 hours
Description: as §1, §2, §3

ST486 = conditions: Homo sapiens; ST486, Lymphoma; 48 hours
Description: as §1, §2, §3

Reh = conditions: Homo sapiens, Leukemia, 48 hours
Description: as §1, §2, §3

SNB-19 = conditions: Homo sapiens; SNB-19, CNS; 48 hours
Description: as §1, §2, §3

NCI/ADR-RES = conditions: Homo sapiens, Breast, 48 hours
Description: as §1, §2, §3

MCF7 = conditions: Homo sapiens; MCF7, Breast; 48 hours
Description: as §1, §2, §3

SF-295 = conditions: Homo sapiens; SF-295, CNS; 48 hours
Description: as §1, §2, §3

RS4-11 = conditions: Homo sapiens; RS4-11, Leukemia; 48 hours
Description: as §1, §2, §3

Jgamma-1 = conditions: Homo sapiens, J.gamma1; Jgamma-1, Leukemia; 48 hours
Description: as §1, §2, §3

MOLT4 = conditions: Homo sapiens, MOLT-4; MOLT4, Leukemia; 48 hours
Description: as §1, §2, §3

UACC-62 = conditions: Homo sapiens; UACC-62, Melanoma; 48 hours
Description: as §1, §2, §3

RPMI-6666 = conditions: Homo sapiens; RPMI-6666, Lymphoma; 48 hours
Description: as §1, §2, §3

## CN1CCC[C@H]1CCNC(=O)c1cn2c3c(c(N4CCC(c5cnccn5)C4)c(F)cc3c1=O)Oc1cc3ccccc3cc1-2 (stereo partly shown) [TA1-1B]
D1-1
  EC50: 4160 nM
GDM-1
  EC50: 1260 nM
SF-268
  EC50: 1230 nM
Ramos
  EC50: 1330 nM
MC116
  EC50: 3870 nM
HCT-15
  EC50: 1510 nM
SNB-75
  EC50: 2310 nM
T-47D
  EC50: 6560 nM
Kasumi-1
  EC50: 2050 nM
RS1184
  EC50: 3250 nM
UO-31
  EC50: 2380 nM
MEG-01
  EC50: 6000 nM
MOLT-3
  EC50: 1140 nM
H9
  EC50: 2240 nM
PC-3
  EC50: 4960 nM
OVCAR-3
  EC50: 4280 nM
MALME-3M
  EC50: 5090 nM
TF-1
  EC50: 5460 nM
THP-1
  EC50: 3180 nM
JM1
  EC50: 2230 nM
ST486
  EC50: 1280 nM
Reh
  EC50: 1320 nM
SNB-19
  EC50: 4630 nM
NCI/ADR-RES
  EC50: 1620 nM
MCF7
  EC50: 3460 nM
SF-295
  EC50: 4270 nM
RS4-11
  EC50: 550 nM
Jgamma-1
  EC50: 1720 nM
MOLT4
  EC50: 1220 nM
UACC-62
  EC50: 4880 nM
RPMI-6666
  EC50: 1590 nM

— patent US20080318938A1, “METHODS FOR TREATING ABERRANT CELL PROLIFERATION DISORDERS” (priority 2007, published 2008)
